Experiments:
[1] = biological target: Antibody from Diazo-coupled Immunogen; experiment: RIA cross-reactivity: competition with labeled physostigmine for antibody from diazo-coupled immunogen; format: binding, New Zealand white rabbits; settings: 1:150, max 1000 ng tested
Protocol: (§1) Antibodies to the physostigmine-BSA immunogen were produced by injecting male New Zealand white rabbits with immunogens formed by either method. Prior to injection, the immunogen was emulsified with an equal volume of complete Freund's adjuvant, purchased from Difco Laboratories of Detroit, Mich. The initial immunization consisted of 0.8 mg of protein injected intracutaneously in multiple dorsal sites of the rabbits. Booster injections containing 0.8 mg of immunogen and incomplete Freund's adjuvant were administered every two months for the next six months. Antisera was collected one week after each booster injection from the central ear vein. The blood was allowed to clot at room temperature and then centrifuged at 1500×g for 15 minutes. The separated serum was stored frozen at -20° C. until assayed for the presence of physostigmine antibody.
In the assay procedure ^3 H-Physostigmine having specificity of 19.0 Ci/mmole and purchased from the Amersham Corp. of Arlington Heights, Ill., was used as tracer. The dilution of tracer (5000 dpm), antibody (1:150) and physostigmine standards (100-10,000 pg) were made using 0.01M phosphate buffer containing 150 mM sodium chloride with a pH of 7.4. […] Both standard and sample tubes were always analyzed in duplicate. The assay was carried out according to the protocol shown in Table 1 with the reagents were added to the assay tubes in the order shown.
(§2) According to the protocol for the RIA of the present invention, after the addition of antisera, the contents of the tubes were mixed and incubated for 3 hours at 4° C. The antigen which bound to the antibody was separated by adding saturated ammonium sulfate and centrifuging at 2500×g for 15 minutes. After aspiration of the supernatant, the precipitate was washed one time with 50% saturated ammonium sulfate; then the mixture was centrifuged and the supernatent removed. The precipitate was dissolved in 1.0 ml of distilled water, and the solution was transferred to a scintillation vial containing 10.0 ml of acquasol 2.
(§3) The radioactivity which was bound to the antibody was determined in counts per minute with a Beckman LS-3133P Liquid Scintillation Counter. […] The concentration of physostigmine is plotted on the horizontal axis, while the percent inhibition of binding radioactively labeled is plotted on the vertical axis. […] Concentrations of physostigmine in unknown samples were determined according to conventional calculations from the standard curve.
(§4) Competition of the compounds with labeled physostigmine (5000 dpm) for antibody binding sites was determined arbitrarily at 50% inhibition of the physostigmine on the standard curve. Each compound was tested for cross-reactivity with the antibody. The maximum concentration of each compound tested was 1000 ng.

[2] = biological target: Antibody from Mannich Immunogen; experiment: RIA cross-reactivity: competition with labeled physostigmine for antibody from Mannich immunogen; format: binding, New Zealand white rabbits; settings: 1:100, max 1000 ng tested
Protocol: as §1
In the assay procedure ^3 H-Physostigmine having specificity of 19.0 Ci/mmole and purchased from the Amersham Corp. of Arlington Heights, Ill., was used as tracer. […] Both standard and sample tubes were always analyzed in duplicate. The assay was carried out according to the protocol shown in Table 1 with the reagents were added to the assay tubes in the order shown.
as §2, §3, §4

CNC(=O)Oc1ccc2c(c1)[C@]1(C)CCN(C)[C@@H]1N2C [Physostigmine, physostigmine]
IC50 (50% inhibition of binding of 3H-physostigmine) [1]: 1.35 ng | IC50 (50% inhibition of binding of 3H-physostigmine) [2]: 1.35 ng

From patent US5252495A, “Immunoassay for physostigmine” (priority 1992, dated 1993)
